Test results published in patent publication US20220288048A1, “PIMAVANSERIN FOR TREATING SCHIZOPHRENIA OR FOR TREATING PSYCHOSIS SECONDARY TO NEURODEGENERATIVE DISORDERS OR DEPRESSIVE DISORDER” (ACADIA Pharmaceuticals Inc., priority 2019, published 2022).
Entries after “also recorded” stand apart in the source; their conditions may differ.

What was measured:
Assay type in all cases: in vivo
[1] = system: scPCP+ARS(2h) treated male C57BL/6J mice; experiment: 10-min social interaction test in scPCP-treated mice given 2 h acute restraint stress (treatment-resistant model); conditions: for Able to restore sniffing or decrease avoidance (SI deficit), drug alone: risperidone 0.2, olanzapine 1, aripiprazole 1 or pimavanserin 3 mg/kg ip alone, 45 min prior to test
Experimental: (§1) Briefly, mice were habituated to the test arena (i.e., the NOR box) for 30 minutes prior to the test day. Pairs of mice, unfamiliar to each other, received either the same treatment (e.g., vehicle and vehicle; N=10 pairs) or different treatments (e.g., vehicle; N=10 and phencyclidine (PCP) 10 mg/kg; N=10). After washout, they were placed in the test arena together for 10 minutes. A heavy object made of Plexiglas or metal was placed in the center of the test arena to quantify the time and nature of interaction of the test animals with an unfamiliar object or an unfamiliar animal. After the 10 min test phase, the object and the arena were cleaned with 70% ethanol to remove any olfactory trails. Behavior was recorded on video for subsequent blind scoring.
(§2) The following four behaviors were scored for each animal: • a) Sniffing: A normal mouse engages in sniffing the con-specific mouse's body, including the anogenital area • b) Following: A normal mouse pursues a con-specific mouse around the arena • c) Avoiding: A normal mouse avoids the con-specific mouse and move away from a pursuing mouse if approached • d) Object Exploration: A normal mouse explores the object that is placed in the center of the test arena.
Acute restraint stress (ARS) protocol: Mice were assigned to one of two groups: either the control group (non-stress) or the stress group. Generally, mice of the stress group were restrained in well-ventilated 50 mL tubes. After the restraint period of 1 or 2 hours, the mice were transferred into a clean animal housing cage for 1-hour interval and thereafter went through the first social interaction test (different mice are used to test different groups).
Treatment resistant animal model: To establish this model, Acute restraint stress (ARS) was added to scPCP treatment. Two groups (vehicle+ARS; scPCP+ARS) and their controls (vehicle+saline; scPCP+saline) were used. ARS was applied for 1 or 2 hours and tested on SI 1 hour post-ARS.
(§3) The behavioral assay, ARS protocol, and scPCP-treatment as described in Example 2 were used. To test the effect of atypical APD and pimavanserin, alone or as con-administration, in scPCP-treated mice (N=10 pairs of mice per group) given 2 h ARS, risperidone (“Risp”) was administered as 0.2 mg/kg or 0.4 mg/kg ip; olanzapine (“Olan”) as 1.0 mg/kg ip; aripiprazole (“Aripi”) as 1.0 mg/kg ip; and pimavanserin (“Pim”) as 3 mg/kg ip to scPCP+ARS(2h) treated male C57BL/6J mice 45 minutes prior to the commencement of the social interaction task in the 10 min social interaction test. Plasma levels of risperidone were measured using a Triple Quad 6500+ mass spectrometer.

[2] = system: scPCP-treated C57BL/6J mice; experiment: 10-min social interaction test in scPCP-treated mice; conditions: 45 min prior to test
Experimental: Negative symptoms model: The behavioral assay utilized to assess negative symptoms was social interaction (SI) task.
as §1, §2
scPCP treatment involved intraperitoneal injection (ip) of 10 mg/kg PCP to male C57BL/6J mice, twice daily (bid) for 7 days, followed by 7 days washout. To test the effect of atypical APD or pimavanserin in scPCP-treated mice (N=10 pairs of mice per group), risperidone was administered as 0.05 mg/kg ip or 0.2 mg/kg ip; and pimavanserin was administered as 3 mg/kg ip or 6 mg/kg ip to scPCP-treated mice 45 minutes prior to the commencement of the social interaction task in the 10 min social interaction test.

[3] = Plasma levels of risperidone in scPCP and ARS-treated mice (mass spectrometer)
Experimental: as §3

Row | Compound | Able to restore sniffing or decrease avoidance (SI deficit), drug alone [1] | SI deficit produced by scPCP: time exploring the conspecific mouse ([2]; risperidone 0.05 mg/kg ip) | SI deficit produced by scPCP: time exploring the conspecific mouse ([2]; risperidone 0.2 mg/kg ip) | Effect on SI deficit, doubled dose ([1]; risperidone 0.4 mg/kg ip) | Plasma levels of risperidone ([3]; 0.2 mg/kg risperidone group) | Plasma levels of risperidone ([3]; 0.2 mg/kg risperidone plus 3 mg/kg pimavanserin group) | Plasma levels of risperidone ([3]; 0.4 mg/kg risperidone group)
1 | O=C1CCc2ccc(OCCCCN3CCN(c4cccc(Cl)c4Cl)CC3)cc2N1 [aripiprazole] | Neither | – | – | – | – | – | –
2 | Cc1nc2n(c(=O)c1CCN1CCC(c3noc4cc(F)ccc34)CC1)CCCC2 [risperidone] | Neither; also recorded: ineffective | sub-effective | spent more time exploring the conspecific mouse | ineffective | 5.4±0.1 | 5.3±0.6 | 8.0±3.3
